≈ marks a conversion by molar mass, not a printed value.

For orientation: IC50 means the point on the concentration scale where inhibition reaches its midpoint.

In the experiment the test system is Radical scavenging activity. Kind of experiment: Antioxidant activity assessed as DPPH radical scavenging activity after 30 mins. The experiment is classed as functional. On the technique in general: DPPH is a stable violet radical that fades when it is reduced.
Regarding `O=C1/C(=C(/C(=C2\Oc3cc(O)ccc3C2=O)c2ccc(O)c(O)c2)c2ccc(O)c(O)c2)Oc2cc(O)ccc21`, the IC50 was 9.7 µg/mL (≈ 18 µM).
As for `O=C1O[C@H]([C@@H](O)CO)C(O)=C1O` [ASCORBIC ACID], the figure is 22 µg/mL (≈ 125 µM).
`COc1ccc(O)c(C(C)(C)C)c1.COc1ccc(O)cc1C(C)(C)C` [BUTYLATED HYDROXYANISOLE]: the IC50 is 21 µg/mL.
For the molecule `COC(=O)c1cc(O)c(O)c(O)c1` [GALLIC ACID METHYL ESTER], the half-inhibitory concentration (IC50) was 18.6 µg/mL (≈ 101 µM).
To `O=C(O)c1cc(O)c(O)c(O)c1` [GALLIC ACID] belongs 10 µg/mL (≈ 58.8 µM).
To `O=C(OC[C@H]1O[C@@H](OC(=O)c2cc(O)c(O)c(O)c2)[C@H](OC(=O)c2cc(O)c(O)c(O)c2)[C@@H](OC(=O)c2cc(O)c(O)c(O)c2)[C@@H]1OC(=O)c1cc(O)c(O)c(O)c1)c1cc(O)c(O)c(O)c1` [PENTAGALLOYL GLUCOSE] belongs 12.6 µg/mL (≈ 13.4 µM); to `O=C1/C(=C/c2ccc(O)c(O)c2)Oc2cc(O[C@@H]3O[C@H](CO)[C@@H](O)[C@H](O)[C@H]3O)ccc21` [SULFUREIN], 18.7 µg/mL (≈ 43.2 µM); to `O=C1/C(=C/c2ccc(O)c(O)c2)Oc2cc(O)ccc21` [SULFURETIN], 16.1 µg/mL (≈ 59.6 µM).

For the origin of these results see ChEMBL document CHEMBL1154991, “Activity-guided isolation of antioxidative constituents of Cotinus coggygria” (J Nat Prod, 2000).
